Laboratory results reported in the METLIN SMRT retention time set (Domingo-Almenara et al. 2019).

Assay: gradient 5% acetonitrile 3 min, to 50% in 2 min, to 85% in 15 min, held 3 min, 100 µL/min
Details: column: Zorbax Extend-C18 2.1 x 50 mm; eluents: water / acetonitrile, 0.1% formic acid
In short: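 A Zorbax Extend-C18 column (2.1 × 50 mm, 1.8 μm) run at 100 μL/min with water and acetonitrile, both containing 0.1% formic acid, separated mixtures of ~100 pure standards. The HPLC was coupled to a quadrupole time-of-flight mass spectrometer operated in positive and negative ionization mode, with dead and dwell volumes of 40 μL and 900 μL. Each retention time was taken from a computationally picked adduct peak that was then manually inspected.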

SMILES	RP-LC retention time [s]
N#Cc1cccc(NC(=O)Cn2cccc2-c2nc(-c3ccc4c(c3)OCO4)no2)c1	924
CCCCOc1ccc(-c2cc3c(N4CCN(c5ccccn5)CC4)nccn3n2)cc1	822
Cc1ccc(S(=O)(=O)N2CCCC2)cc1-c1nnc(-c2ccc(Cl)cc2)o1	1130
Cc1cc(-c2nc3ccccc3s2)ccc1N	880
COc1ccc(-c2cn3cccnc3n2)cc1NC(=O)c1ccc(Br)cc1	738
c1ccc2c(c1)-c1cccc3cncc-2c13	897
Cc1c(C(=O)N2CCC(C)CC2)cnn1-c1ccc(-c2nc(C(C)(C)C)no2)cn1	1250
COc1ccc(CC(=O)N2CCc3cc(-c4ccno4)ccc32)cc1Cl	1000
Clc1ccc(C2Cn3nnc(-c4nc(-c5cccc(Cl)c5)no4)c3CO2)cc1 (centres undefined)	1310
O=C(NC1CCN(c2cc(-c3ccc(F)cc3)[nH]n2)C1)c1ccc(Cl)cc1 (centres undefined)	777
CCc1nc2nccc(-c3ccc(OC)cc3F)n2n1	778
CCNc1cc(N2CCCC(CCC(=O)NCc3cccc(F)c3)C2)ncn1 (centres undefined)	585
CN(CC1(C)CCOCC1)S(=O)(=O)c1ccc(Cl)s1	976
CCOC(=O)O[C@]1(C(=O)OCCl)CC[C@H]2[C@@H]3CCC4=CC(=O)C=C[C@]4(C)[C@H]3[C@@H](O)C[C@@]21C	1150
COc1ccc(Cl)cc1NS(=O)(=O)c1ccc2c(c1)C(=O)N(C)c1ncccc1O2	958
Cc1ccccc1CN1C[C@@H]2C(=O)N(C)C(=O)[C@@H]2C1	585
Clc1cccc(-n2cc(-c3noc(-c4ccc5c(c4)OCO5)n3)nn2)c1	1100
Cc1cccc(OCc2nc(CCN(C)C(=O)NC3CCCC3)no2)c1	894
Cc1ccc(NC(=O)N2CCc3nc[nH]c3C2)c(Cl)c1	585
CCCNC(=O)CSc1ncccc1C(=O)O	599
Cc1nc(C)c(C(=O)N(Cc2ccccn2)c2nc3c(Cl)cccc3s2)s1	957
CSc1ccc(CNC(=O)CSc2nccc(N3CCN(c4cc(C)ccc4C)CC3)n2)cc1	921
CC(C)Cn1ccc2c(cc(C(=O)Nc3ccc(C(C)C)cc3)n2C)c1=O	1030
CCC(=O)NCc1nc(-c2ccccc2Cl)no1	717
O=C(Cc1ccc(Cl)cc1)N1CCN(c2nc(CN3CCOCC3)cs2)CC1	642

SMILES	RP-LC retention time [s]
CCOc1ccc(-c2cn3ccn(-c4ccc(C)c(C)c4)c(=O)c3n2)cc1	949
Fc1ccc(Cl)cc1-c1nc(Nc2ccncc2)c2nccnc2n1	648
COc1ccc(CCC(=O)NCCCOc2cccc3cccnc23)cc1	593
CC1CN(c2nc3c(c(=O)n(C)c(=O)n3C)n2Cc2cccc(F)c2)CC(C)O1 (centres undefined)	885
Cc1cc(Cl)ccc1N1C(=O)CN(S(C)(=O)=O)CC1(C)C(=O)NC1CCCCCCC1 (centres undefined)	1010
O=C(NC1(c2nc(-c3cnccn3)no2)CCCCC1)c1cc2cc(Cl)ccc2[nH]1	916
CCc1ccc(-c2noc(CSc3nc4cc5c(cc4c(=O)n3Cc3ccncc3)OCO5)n2)cc1	909
OC(CN1CCC(Cc2ccc(F)cc2)CC1)c1ccc(Cl)cc1 (centres undefined)	825
CCc1ccc(-c2ccc(-n3nc(C)c(S(=O)(=O)NC4CC4)c3C)nn2)cc1	1070
Cc1cc(C(=O)N[C@@H]2CN(c3ncccn3)C[C@H]2CO)c(C)o1	616
CCOc1ccc(N2CCCCn3c2nc2c3c(=O)n(CCOC)c(=O)n2C)cc1	853
COc1ccc(CNC(=O)c2cn3cc(Cl)ccc3n2)cc1	811
Cc1cccc2c1CCN(C(=O)c1ccco1)[C@@H]2C	931
CCCNc1cc(N2CCC(CCC(=O)N3CCCN(c4ncccn4)CC3)CC2)ncn1	573
COc1ccc(-c2csc3c(=O)n(Cc4cccc(OC)c4)cnc23)cc1	1030
COc1ccc(OC)c(NC(=O)C(C)Oc2ccc(=O)n(-c3ccc(F)cc3)n2)c1 (centres undefined)	816
CCn1cc(CCN2CCN(S(=O)(=O)c3ccc(C)cc3)CC2)c2cccnc21	652
CCCc1ccc(S(=O)(=O)N2CCCC2c2nc(-c3ccc(F)cc3)no2)cc1 (centres undefined)	1270
COc1ccc(-c2cc(N3CCC(NC(=O)c4ccc(Br)o4)CC3)n[nH]2)cc1	735
CCC1(CC)NC(=O)N(CC(=O)Nc2ccc(F)cc2F)C1=O	677
COc1ccc(Cl)cc1NS(=O)(=O)c1c(C)sc(C)c1-c1cc(C(F)(F)F)on1	1220
COC(=O)C(C)(N)Cc1ccc(O)cc1 (centres undefined)	573
COc1ccc(S(=O)(=O)CCc2noc(C(=O)NCCc3ccc(SC)cc3)n2)cc1	930
CCCN1C(=O)C(NC(=O)c2cccc(OC)c2)(C(F)(F)F)C(C(=O)OC)=C1C (centres undefined)	946
Cc1ccc(-c2nc(C)c(C(=O)NC(C)C)s2)cc1	949

Continued, values first:

RP-LC retention time [s]	SMILES
617	Cc1ccc(CNC(=O)C2(C)Cn3nc(C(=O)NCCCN4CCCCCC4)cc3C(=O)N2C)cc1 (centres undefined)
774	Cc1ccc(NC(=O)c2c(C)oc3nc(C)nc(N4CCCC4)c23)cc1
730	Cn1nc(C(=O)N2CCCC(C(=O)Nc3ccccc3)C2)c2c1CCN(C(=O)c1cccs1)C2 (centres undefined)
563	CCNC(=O)c1cc(N2CCOCC2)nc2ccccc12
617	CCC(C(=O)NCCN1CCOCC1)n1c2ccccc2c2cnn(C)c(=O)c21 (centres undefined)
555	Cc1ccc(CN2CC(n3c(C)cnc3-c3ccccc3)C2)s1
692	O=S(=O)(c1ccc(F)cc1)N1CCC2(CC1)NCCN=C2NCc1ccccc1F
887	O=C([C@@H]1C[C@H](F)CN1S(=O)(=O)c1ccccc1F)N1CCc2ccccc2C1
608	O=C(NCC1CCCO1)C1COC2(CCN(C(=O)C3CC3)CC2)N1C(=O)c1ccccc1 (centres undefined)
584	COc1ccc(NC(=O)NC2CCN(c3cc(N4CCCC4)cnn3)C2)cc1Cl (centres undefined)
723	COc1ccc(C(=O)N2C[C@@H]3C[C@H]2C[C@@H]3NS(=O)(=O)c2ccccc2)cc1OC
660	COc1cc(OC)cc(C(=O)N2C[C@@H]3C[C@H](NC(=O)c4cccs4)[C@H]2C3)c1
790	CC1CCC2(CC1)NC(=O)N(CC(=O)NCc1ccccc1Cl)C2=O (centres undefined)
926	CCOCCCNC(=O)C1CCCN(c2nccnc2Oc2ccc(C)cc2)C1 (centres undefined)
795	CC(C)CC(=O)N1CCc2[nH]nc(C(=O)NCCCc3ccccc3)c2C1
679	CCCNC(=O)C1CCN(c2ccc(SCC(=O)Nc3ccc(C)cc3F)nn2)CC1
586	COc1cccc(N2CC(C(=O)Nc3nnc4n3CCS4)CC2=O)c1 (centres undefined)
736	O=C(O)C1(c2cc(-c3ccccc3)on2)CC1
573	CN1CCN(CCNC(=O)C2CN(S(=O)(=O)c3ccccc3)CC23CCCCC3)CC1 (centres undefined)
797	CC1CCC(NC(=O)C2CCN(S(=O)(=O)c3cc(C(=O)N(C)C)cs3)CC2)CC1 (centres undefined)

RP-LC retention time [s]	SMILES
919	CC1CCN(C(=O)C2=CN(c3ccccc3)c3ccccc3S2(=O)=O)CC1
789	O=C(Nc1ccccc1)N1C[C@@H]2C(=O)N(CCc3ccccc3)C(=O)[C@@H]2C1
718	O=C1COc2cc(S(=O)(=O)N3CCCC3C(=O)NCc3ccccc3)c(Cl)cc2N1 (centres undefined)
650	Cc1ccc2nc(C(=O)N3CCN(c4ccc(F)cc4)CC3)cn2c1
647	Cc1cnc(C(=O)N2CC[C@H](n3c(=O)n(C)c4cccnc43)C2)cn1
927	O=C(O)c1cc(NS(=O)(=O)c2ccccc2)ccc1N1CCCC(CN2CCCC2)C1 (centres undefined)
660	CC(Oc1ccccc1F)C(=O)NCCn1nc(-n2cccn2)ccc1=O (centres undefined)
848	COc1ccc(-c2ncc(NC(=O)C3CCC3)cn2)cc1
602	CCCNC(=O)N1CCN(c2nc3c(s2)CN(C(=O)CC)CC3)CC1
882	CCc1nn2c(CNC(=O)c3cccn3C)c(-c3ccccc3)nc2s1
1110	O=C(O)c1cc(-c2ccc(Br)s2)nc2ccccc12
563	O=C(Cn1ccc2ccccc21)N1CCN(S(=O)(=O)C2CC2)CC1
1190	COC(=O)c1cnc(N2CCN(c3ccc(F)cc3)CC2)c2ccccc12
645	COCC1CN(C2CCC2)CC12CCN(C(=O)c1ccc(C)s1)CC2 (centres undefined)
678	CCOC(=O)c1cccc(NC(=O)Cn2cnc3nc(N4CCCC(C(=O)NC)C4)sc3c2=O)c1 (centres undefined)
729	CCNC(=O)C1CCN(C(=O)Nc2ccc(NC(=O)Nc3ccc(C)cc3C)cc2)CC1
752	COc1cc(NC(=O)N2C[C@@H](F)C[C@H]2C(=O)N2CCc3ccccc3C2)cc(OC)c1
1040	Cc1cccc(NC(=O)Nc2nccn(-c3cccc(Cl)c3)c2=O)c1
864	CCN(CC)C(=O)c1ccc2c(c1)N(CC(=O)NCCC1=CCCCC1)C(=O)CS2
